# From patent US12285034B2, “Human and non-human animal use of microbial anaplerotic oil” (HELIAE DEVELOPMENT, LLC, priority 2017, dated 2025)
# Columns and labels:
# [1] = test system: Aurantiochytrium acetophilum HS399; assay: Cyanocobalamin and propionate deposition, flask (Example 10); assay type: cell-based
# [2] = test system: Yarrowia lipolytica ATCC18944; assay type: cell-based; conditions: 192 h, itaconic acid 0.5 / propionate 6 g/L
# Description: Culture conditions. In one implementation, Yarrowia lipolytica ATCC18944 can be cultivated in triplicates (n=3) in a medium containing (g/L): glycerol (80), monosodium […]), yeast extract (1), NaCl (12.5), MgSO4 (7), H2O (2.5), KCl (0.5), CaCl2 (0.1), KH2PO4 (0.5), trace metal solution (5 mL) and vitamin solution (1 mL). The trace element solution may contain (g/L): […] The vitamin solution can be filter-sterilized (e.g., using 0.2 μm pore size filter) containing (mg L-1): thiamine (100), biotin (0.5) and cyanocobalamin (0.5) unless otherwise stated. In some implementations cyanocobalamin might be added to or subtracted from the medium formulation to change or impact propionic acid deposition in OCFA. […] In one implementation, a concentration of the cyanocobalamin and/or cobalt in the culture medium can be below 0.4 μM. […] The flasks can be incubated in the dark in an orbital shaker at 180 rpm, 27° C. In this implementation, sodium propionate is fed batch every day according to respective treatments. […] Analyses. Cell dry weights can be obtained by drying samples that are previously vacuum filtrated (e.g., using 0.2 μm pore size filters). Residual propionate is analyzed directly by high performance liquid chromatography (HPLC). Lipids and total fatty acids are analyzed using a direct extraction, transesterification followed by gas chromatography (GC) and detection by flame ionization (FID). The different fatty acids are identified and quantified using appropriate internal and external standards. Propionic acid deposition rate.
# [3] = test system: Aurantiochytrium acetophilum HS399; assay: Alternative promoters of OCFA production (Example 17); conditions: for capacity to induce the production of OCFAs: flask cultures
# Description: Further, it may be beneficial to find alternative promotors to produce OCFA that are less toxic to the model organisms or that are simpler. In this implementation, pentanoate, heptanoate, yeast extract, proteose peptone, methionine, valine and isoleucine are evaluated for their capacity to induce the production of OCFAs. Erlenmeyer flasks can be used and A. acetophilum HS399 can be cultured following the protocols described herein.
# In this implementation, respective flasks can be supplemented with different concentrations of the proposed promoters and the resulting biomass harvested and analyzed for total lipid and fatty acid analyses.
# [4] = test system: Aurantiochytrium acetophilum HS399; assay: Cyanocobalamin impact on propionate metabolism (Example 21); assay type: cell-based
# Description: Aurantiochytrium acetophilum HS399 was cultivated in the presence and absence of cyanocobalamin. […] The trace element solution contained (g/L): […] The vitamin solution contained (mg/L): thiamine (100) and biotin (0.5). All culture materials were autoclaved (121° C., 15 min) and media was filter sterilized before use. […] Biomass for lipid analysis was centrifuged and washed using purified water. The washed biomass was freeze dried. […] As described above, OCFAs anaplerosis can merely take place in the presence of cyanocobalamin. In this implementation, the cell dry weight and residual propionate can be monitored, and residual glucose in the media can be analyzed.
# [5] = test system: Aurantiochytrium acetophilum HS399; assay: Cyanocobalamin impact on glucose metabolism (Examples 16, 20); assay type: cell-based; conditions: cyanocobalamin 0.37 μM vs 0, propionic acid 3 and 9 g/L
# Description: (§1) As described above, OCFAs anaplerosis can merely take place in the presence of cyanocobalamin. In this implementation, the cell dry weight and residual propionate can be monitored, and residual glucose in the media can be analyzed.
# Aurantiochytrium acetophilum HS399 was cultivated in the presence and absence of cyanocobalamin. […] The vitamin solution contained (mg/L): thiamine (100) and biotin (0.5). All culture materials were autoclaved (121° C., 15 min) and media was filter sterilized before use. […] Biomass for lipid analysis was centrifuged and washed using purified water. The washed biomass was freeze dried.
# as §1, with “analyzed. […] Cell dry weight reached the same titers independently of the cyanocobalamin concentration.” for “analyzed.”
# [6] = test system: Aurantiochytrium acetophilum HS399; assay type: cell-based; conditions: acetic acid titrant (control), pH 7
# Description: In this implementation, initially (24 h incubation), the culture pH may not be controlled, and the pH of the respective treatments can drift from 7.5 to 8. After 24 h incubation, the desired pH set point of each treatment can be set using the respective organic acids. […] The cultures are aerated at 1.4 vvm and maintained at 27° C. under axenic conditions. […] This medium also contains a trace element solution (5 ml/L) and a vitamin solution (1 ml/L). The trace element solution can contain (g/L): […] […] Residual glucose is analyzed from culture supernatant (5000 g; 5 min) using a colorimetric method based on glucose […] activity. Residual acetate and propionate are analyzed by HPLC using external standard.
# [7] = cyanocobalamin 370 nM vs 0, propionic acid 16 g/L
molecule,measurement,setting,value
"CSCC[C@H](N)C(=O)O [methionine, reference compound]",effect of supplementation on growth,"[1]; 0.5 g/L, with or without cyanocobalamin 0.00037 μM",does not appear to have an impact in growth
"C=C(CC(=O)O)C(=O)O [Itaconic acid, itaconic acid, reference compound]",Cell dry weight,[2],7.9 ± 1.1 g/L
same,Consumed propionate,[2],5.0 ± 1.6 g/L
same,Odd chain fatty acids,[2],1.1 ± 0.6 % DW
same,Propionic acid deposition,[2],0.5 ± 0.2%
CC[C@H](C)[C@H](N)C(=O)O [isoleucine],capacity to induce the production of OCFAs,[3],identified as a nitrogen and OCFAs source
"CCCCCCC(=O)O [heptanoate, heptanoic acid]",toxicity (growth inhibition),[3]; FIG. 53,higher than that of propionic acid
cyanocobalamin,effect on cell dry weight,[4]; [7],positive difference in cell dry weight
same,glucose uptake rate,[4]; [7],significantly (P<0.01 t-student) lower
same,residual propionate in cultures deficient in cyanocobalamin,"[4]; propionic acid 16 g/L, FIG. 58",chronical higher residual propionate
same,effect of cyanocobalamin deprived media on growth,[1]; over 10 generations,substantially no impact on growth
same,glucose uptake rate,[5],significantly (P<0.01 t-student) lower
same,growth in the first 48 hrs,[5],may not be impacted
CC(C)[C@H](N)C(=O)O [valine],capacity to induce the production of OCFAs,[3],identified as a nitrogen and OCFAs source
"CC(=O)O [Acetic acid, acetic acid, reference compound]",Total Fatty Acid,[6],71.9 ± 5.2 % CDW
same,Total Lipids,[6],89.5 ± 0.5 % CDW
